# Data: ChEMBL document CHEMBL1909046, “DrugMatrix in vitro pharmacology data”
# What was measured:
# Interstitial collagenase = target: T1, Interstitial collagenase (Homo sapiens, UniProt P03956); format: tissue-based, Rheumatoid synovial fibroblasts;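 further: MMP-1 enzyme inhibition assay using a peptide substrate; in other assays of this panel Not Active means under 50% inhibition at 10 µM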
# T1 sequence (P03956 whole entry): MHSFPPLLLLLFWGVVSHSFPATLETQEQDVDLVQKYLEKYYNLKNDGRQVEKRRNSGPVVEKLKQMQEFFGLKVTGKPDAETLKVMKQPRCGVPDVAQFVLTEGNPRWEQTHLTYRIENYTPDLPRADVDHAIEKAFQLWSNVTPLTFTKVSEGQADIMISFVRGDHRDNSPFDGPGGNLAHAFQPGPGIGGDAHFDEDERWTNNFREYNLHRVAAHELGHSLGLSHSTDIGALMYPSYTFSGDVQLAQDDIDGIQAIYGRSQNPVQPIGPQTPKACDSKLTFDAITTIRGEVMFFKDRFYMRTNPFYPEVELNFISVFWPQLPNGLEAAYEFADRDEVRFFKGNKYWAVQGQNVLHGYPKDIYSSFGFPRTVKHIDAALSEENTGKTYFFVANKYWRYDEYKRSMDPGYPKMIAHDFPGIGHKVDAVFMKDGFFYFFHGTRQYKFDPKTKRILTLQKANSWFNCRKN
# Cannabinoid receptor 1 = Cannabinoid receptor 1 (Homo sapiens, UniProt P21554); format: cell membranes, Membrane; details: chem-1; further: in other assays of this panel Not Active means under 50% inhibition at 10 µM
# Cannabinoid receptor 1, sequence (P21554 whole entry): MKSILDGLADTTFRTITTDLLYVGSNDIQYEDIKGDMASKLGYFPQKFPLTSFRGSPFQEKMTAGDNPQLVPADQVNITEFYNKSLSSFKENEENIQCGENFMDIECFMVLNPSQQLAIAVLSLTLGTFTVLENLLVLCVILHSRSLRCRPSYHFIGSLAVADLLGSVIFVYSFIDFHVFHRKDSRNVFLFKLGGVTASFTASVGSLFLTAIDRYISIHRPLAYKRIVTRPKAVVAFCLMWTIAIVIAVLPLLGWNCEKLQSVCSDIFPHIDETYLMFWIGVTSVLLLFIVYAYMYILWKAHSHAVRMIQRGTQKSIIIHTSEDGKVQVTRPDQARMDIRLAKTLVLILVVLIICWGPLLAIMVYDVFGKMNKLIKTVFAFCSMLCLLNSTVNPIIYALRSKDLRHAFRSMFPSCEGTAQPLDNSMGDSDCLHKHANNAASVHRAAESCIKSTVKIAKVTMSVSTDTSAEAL
# [1] = target: C-C chemokine receptor type 2 (Homo sapiens, UniProt P41597); format: cell membranes, CHO-K1, Membrane; details: cho-k1; further: in other assays of this panel Not Active means under 50% inhibition at 10 µM
# C-C chemokine receptor type 2, sequence (P41597 whole entry): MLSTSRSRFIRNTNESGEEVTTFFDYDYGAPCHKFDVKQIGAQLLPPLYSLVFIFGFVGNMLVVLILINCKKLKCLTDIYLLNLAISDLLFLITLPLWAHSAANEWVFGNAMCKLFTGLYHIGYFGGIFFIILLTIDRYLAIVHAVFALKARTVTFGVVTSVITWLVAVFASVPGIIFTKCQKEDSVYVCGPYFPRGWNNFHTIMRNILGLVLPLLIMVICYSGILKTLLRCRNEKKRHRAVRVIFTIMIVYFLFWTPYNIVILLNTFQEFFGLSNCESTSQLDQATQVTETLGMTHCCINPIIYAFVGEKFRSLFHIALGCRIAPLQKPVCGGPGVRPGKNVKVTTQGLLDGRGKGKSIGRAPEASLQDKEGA
# [2] = DRUGMATRIX: Sigma2 radioligand binding (ligand: [3H] Ifenprodil); format: cell membranes, Rattus norvegicus, Wistar, Brain, Membrane; details: Not Active = under 50% inhibition at 10 µM
# [3] = target: T2, Alpha-1A adrenergic receptor (Rattus norvegicus, UniProt P43140); assay: DRUGMATRIX: Alpha-1A adrenergic receptor radioligand binding (ligand: prazosin); format: cell membranes, Wistar, Submaxillary gland, Membrane; details: Not Active = under 50% inhibition at 10 µM
# T2 sequence (P43140 whole entry): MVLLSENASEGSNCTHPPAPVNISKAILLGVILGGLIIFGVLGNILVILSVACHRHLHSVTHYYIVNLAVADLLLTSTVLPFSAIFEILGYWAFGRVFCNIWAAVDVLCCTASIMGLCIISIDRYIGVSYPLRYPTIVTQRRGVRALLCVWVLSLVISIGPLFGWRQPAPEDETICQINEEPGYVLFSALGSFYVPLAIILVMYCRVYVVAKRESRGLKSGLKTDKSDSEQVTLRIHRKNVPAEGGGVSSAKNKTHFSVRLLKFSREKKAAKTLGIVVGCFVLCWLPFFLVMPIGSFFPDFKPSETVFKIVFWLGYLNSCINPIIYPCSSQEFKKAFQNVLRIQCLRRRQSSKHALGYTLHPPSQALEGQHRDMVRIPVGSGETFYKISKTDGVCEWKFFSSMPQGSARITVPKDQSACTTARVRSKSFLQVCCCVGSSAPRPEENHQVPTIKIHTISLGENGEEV
# [4] = target: 5-hydroxytryptamine receptor 2B (Homo sapiens, UniProt P41595); format: cell membranes, CHO-K1, Membrane; further: in other assays of this panel Not Active means under 50% inhibition at 10 µM
# 5-hydroxytryptamine receptor 2B, sequence (P41595 whole entry): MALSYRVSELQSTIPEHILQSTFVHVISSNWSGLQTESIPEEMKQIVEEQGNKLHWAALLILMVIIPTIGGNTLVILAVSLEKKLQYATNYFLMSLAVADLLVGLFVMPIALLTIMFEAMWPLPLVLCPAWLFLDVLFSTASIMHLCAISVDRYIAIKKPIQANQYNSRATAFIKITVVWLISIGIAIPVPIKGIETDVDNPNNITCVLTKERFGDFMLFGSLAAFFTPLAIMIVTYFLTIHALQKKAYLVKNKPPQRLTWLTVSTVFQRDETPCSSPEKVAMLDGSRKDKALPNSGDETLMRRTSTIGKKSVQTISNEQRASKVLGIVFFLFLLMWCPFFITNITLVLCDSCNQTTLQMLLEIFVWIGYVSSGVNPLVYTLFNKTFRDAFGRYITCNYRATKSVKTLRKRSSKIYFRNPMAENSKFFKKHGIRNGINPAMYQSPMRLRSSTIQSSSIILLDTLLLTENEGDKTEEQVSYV
# [5] = target: Receptor tyrosine-protein kinase erbB-2 (Homo sapiens, UniProt P04626); assay: biochemical; format: cell-based, Insect cells; details: insect cells
Compound,IC50 (Interstitial collagenase),IC50 (Cannabinoid receptor 1),IC50 [1],IC50 [2],Ki [2],IC50 [3],IC50 ([4]; cho-k1),IC50 [5],Ki (Interstitial collagenase),Ki (Cannabinoid receptor 1),Ki [1],Ki [3],Ki ([4]; cho-k1),Ki [5],IC50 ([4]; read-out: IC50) [µM],Ki ([4]; read-out: Ki) [µM]
CC(C)(C)NC[C@H](O)COc1nsnc1N1CCOCC1 [TIMOLOL],Not Active,Not Active,Not Active,Not Active,Not Active,Not Active,Not Active,Not Active,–,–,–,–,–,–,–,–
Nc1nc2c(c(=O)[nH]1)N(C=O)C(CNc1ccc(C(=O)N[C@@H](CCC(=O)O)C(=O)O)cc1)CN2 (stereo partly drawn) [LEUCOVORIN],Not Active,Not Active,Not Active,Not Active,Not Active,Not Active,Not Active,Not Active,–,–,–,–,–,–,–,–
COc1cc(C(=O)NS(=O)(=O)c2ccccc2C)ccc1Cc1cn(C)c2ccc(NC(=O)OC3CCCC3)cc12 [ZAFIRLUKAST],Not Active,Not Active,Not Active,Not Active,Not Active,Not Active,Not Active,Not Active,–,–,–,–,–,–,–,–
CCOC(N)=O,Not Active,Not Active,Not Active,Not Active,Not Active,Not Active,Not Active,Not Active,–,–,–,–,–,–,–,–
CN(CCOc1ccc(CC2SC(=O)NC2=O)cc1)c1ccccn1 (stereo not drawn) [ROSIGLITAZONE],Not Active,Not Active,Not Active,Not Active,Not Active,Not Active,Not Active,Not Active,–,–,–,–,–,–,–,–
CC(=O)O[C@H]1C[C@@H]2CC[C@@H]3[C@H](CC[C@@]4(C)[C@H]3C[C@H]([N+]3(C)CCCCC3)[C@@H]4OC(C)=O)[C@@]2(C)C[C@@H]1N1CCCCC1.[Br-] [VECURONIUM BROMIDE],Not Active,Not Active,Not Active,Not Active,Not Active,Not Active,Not Active,Not Active,–,–,–,–,–,–,–,–
Nc1ccc(S(=O)(=O)Nc2ncccn2)cc1 [SULFADIAZINE],Not Active,Not Active,Not Active,Not Active,Not Active,Not Active,Not Active,Not Active,–,–,–,–,–,–,–,–
CCS(=O)(=O)CCn1c([N+](=O)[O-])cnc1C [TINIDAZOLE],Not Active,Not Active,Not Active,Not Active,Not Active,Not Active,Not Active,Not Active,–,–,–,–,–,–,–,–
Nc1ccc(S(=O)(=O)Nc2nccs2)cc1 [SULFATHIAZOLE],Not Active,Not Active,Not Active,Not Active,Not Active,Not Active,Not Active,Not Active,–,–,–,–,–,–,–,–
O=C(O)C(Cl)(Cl)Cl [TRICHLOROACETIC ACID],Not Active,Not Active,Not Active,Not Active,Not Active,Not Active,Not Active,Not Active,–,–,–,–,–,–,–,–
C=C(C)[C@H]1Cc2c(ccc3c2O[C@@H]2COc4cc(OC)c(OC)cc4[C@@H]2C3=O)O1 [ROTENONE],Not Active,Not Active,Not Active,Not Active,Not Active,Not Active,Not Active,Not Active,–,–,–,–,–,–,–,–
C#CCN(C)[C@H](C)Cc1ccccc1 [SELEGILINE],Not Active,Not Active,Not Active,Not Active,Not Active,Not Active,Not Active,Not Active,–,–,–,–,–,–,–,–
COc1cc(N)nc2[nH]c(-c3ccc(F)cc3)c(-c3ccncc3)c12,Not Active,Not Active,Not Active,Not Active,Not Active,Not Active,Not Active,Not Active,–,–,–,–,–,–,–,–
THIMEROSAL,Not Active,Not Active,Not Active,Not Active,Not Active,Not Active,Not Active,Not Active,Not Active,Not Active,Not Active,Not Active,Not Active,Not Active,–,–
CNS(=O)(=O)Cc1ccc2[nH]cc(CCN(C)C)c2c1,Not Active,Not Active,Not Active,Not Active,Not Active,Not Active,Not Active,Not Active,–,–,–,–,–,–,–,–
C[C@]12CC[C@H]3[C@@H](CCC4=CC(=O)CC[C@@]43C)[C@@H]1CC[C@@H]2O [TESTOSTERONE],Not Active,Not Active,Not Active,Not Active,Not Active,Not Active,Not Active,Not Active,–,–,–,–,–,–,–,–
C[C@@H]1C[C@H]2[C@@H]3CCC4=CC(=O)C=C[C@]4(C)C3=CC[C@]2(C)[C@H]1C(=O)CN1CCN(c2cc(N3CCCC3)nc(N3CCCC3)n2)CC1 [TIRILAZAD],Not Active,Not Active,Not Active,Not Active,Not Active,Not Active,–,Not Active,–,–,–,–,–,–,18.5,11.8
NC[C@H]1O[C@H](O[C@H]2[C@H](O)[C@@H](O[C@H]3O[C@H](CO)[C@@H](O)[C@H](N)[C@H]3O)[C@H](N)C[C@@H]2N)[C@H](N)C[C@@H]1O [TOBRAMYCIN],Not Active,Not Active,Not Active,Not Active,Not Active,Not Active,Not Active,Not Active,–,–,–,–,–,–,–,–
CN[C@@H]1[C@H](O)[C@H](NC)[C@H]2O[C@@]3(O)C(=O)C[C@@H](C)O[C@H]3O[C@@H]2[C@H]1O [SPECTINOMYCIN],Not Active,Not Active,Not Active,Not Active,Not Active,Not Active,Not Active,Not Active,–,–,–,–,–,–,–,–
CO[C@H]1C[C@@H]2CC[C@@H](C)[C@@](O)(O2)C(=O)C(=O)N2CCCC[C@H]2C(=O)O[C@H]([C@H](C)C[C@@H]2CC[C@@H](O)[C@H](OC)C2)CC(=O)[C@H](C)/C=C(\C)[C@@H](O)[C@@H](OC)C(=O)[C@H](C)C[C@H](C)/C=C/C=C/C=C/1C [SIROLIMUS],Not Active,Not Active,Not Active,Not Active,Not Active,Not Active,Not Active,Not Active,–,–,–,–,–,–,–,–
O=P(O)(O)C(O)(Cc1cccnc1)P(=O)(O)O [RISEDRONIC ACID],Not Active,Not Active,Not Active,Not Active,Not Active,Not Active,Not Active,Not Active,–,–,–,–,–,–,–,–
COc1ccc(CN2CCNCC2)c(OC)c1OC [TRIMETAZIDINE],Not Active,Not Active,Not Active,Not Active,Not Active,Not Active,Not Active,Not Active,–,–,–,–,–,–,–,–
